According to patent publication US8008502B2, “Thiazoline acid derivatives” (University of Florida Research Foundation, Inc., priority 1998, dated 2011):

Experiments:
[1] = system: iron-overloaded primate model; details: po, 150 umol/kg, 24 h
Description: The drug was prepared as a solution in 40% Cremophor-H2O and administered at a dose of 1.50 μmol/kg p.o. The monkeys were fasted for 24 hours before dosing.

[2] = system: non-iron-overloaded, bile duct-cannulated rat; experiment: Iron excretion in the non-iron-overloaded, bile duct-cannulated rat; format: in vivo; details: 150 μmol/kg p.o., solution in 40% Cremophor-H2O, rats fasted for 24 hours
Description: Preparation of Drugs. Drug solutions were prepared in 60% water, 40% Cremophor RH-40.
Initial testing of 1 was performed in the non-iron-overloaded, bile duct-cannulated rat [J. Med. Chem., Vol. 34, Bergeron et al, “Synthesis and Biological Evaluation of Hydroxamate-Based Iron Chelators,” pages 3182-3187 (1991)]. The drug was prepared as a solution in 40% Cremophor-H2O and administered at a dose of 150 μmol/kg p.o. The rats were fasted for 24 hours before dosing. The efficiency of iron excretion induced by 1 was 2.4±0.92%.

animal models = details: literature; cited from earlier work

Structure (SMILES) | efficiency (iron excretion) [1] [%] | efficiency of iron excretion [2] [%] | clearing iron (animal models)
O=C(O)[C@H]1CSC(c2ccc(O)cc2O)=N1 [Compound 1, 4,5-dihydro-2-(2,4-dihydroxyphenyl)-thiazole-4(S)-carboxylic acid] | 4.2±1.4 | 2.4±0.92 | –
O=C(N[C@H]1COC(=O)[C@@H](NC(=O)c2cccc(O)c2O)COC(=O)[C@@H](NC(=O)c2cccc(O)c2O)COC1=O)c1cccc(O)c1O [enterobactin] | – | – | only marginally effective
CC(=O)N(O)CCC[C@@H]1NC(=O)[C@H](CCCN(O)C(C)=O)NC1=O [rhodotorulic acid] | – | – | reasonably active
